Data on nine compounds can be found in US10183032B2, “Methods for treating bacterial infection” (Ball State Innovation Corporation, priority 2012, dated 2019).

In data set [1] the test system is Staphylococcus aureus. As to the kind of experiment: Staphylococcus aureus host cell invasion assay in HUVEC, flow cytometry. In kind it is cell-based. As to conditions: HUVEC; for inhibition of invasion compared with ML 141 (Table 1): 10 μM, flow cytometry; for activity at 10 µM: Staphylococcus aureus, 1 h, read-out: Internalized bacteria (% control ± SEM), Structural analog. On the procedure:
In one embodiment, human umbilical vein endothelial cells (HUVEC, Life Technologies) are cultured in M200 medium supplemented with LSGS. RAW 264.7 cells (American Type Culture Collection, ATCC, Manassas, Va.) are cultured in RPMI supplemented with 10% FBS and L-glutamine. All cell types are maintained at 5% CO2, 37° C., in 75 cm^2 vented cap flasks (Thermo-Fisher). For assays, cultured cells are plated at 1×10^5 cells/ml in 35 mm culture dishes coated with Attachment Factor. The next day, cells are pretreated in culture medium containing the vehicle control or ML 141. For compound delivery, ML 141 first is suspended into DMSO or into PEG at a concentration of 5 mM. The 5 mM solution is diluted to 1 mM in the solvent and then diluted to the final concentration for each experiment in either serum-containing or serum-free medium. For vehicle control treatment, the same volume of PEG or DMSO as that of ML 141 is added to medium. The following day, the invasion assay is performed. For the shorter duration experiments, compound is added on the same day as the invasion assay, 1 hour prior to bacteria.
In another embodiment, HUVEC (Millipore, Billerica, Mass.) are cultured in EndoGRO LS Complete Media (Millipore) and are maintained at 5% CO2, 37° C., in 75 cm^2 vented cap flasks (Thermo-Fisher). For the invasion assay, cultured cells are plated at 1×10^4 cells/ml in 96-well culture dishes coated with Attachment Factor. The next day, cells are pretreated in culture medium containing the vehicle control, ML 141, or ML 141 structural analog. For compound delivery, ML 141 and structural analogs first are suspended into PEG at a concentration of 5 mM. The 5 mM solution is diluted to 1 mM in the solvent and then is diluted to the final concentration for each experiment in serum containing medium. For vehicle control treatment, the same volume of PEG as that of ML 141 or of ML 141 structural analog is added to the medium. The following day, the invasion assay is performed. Bacteria are added directly to medium containing vehicle control, ML 141, or the ML 141 structural analog.
Two days prior to the assay, TSB is inoculated with S. aureus (American Type Culture Collection #29213) and incubated overnight (225 rpm, 37° C.). Bacteria are subcultured the next day into fresh TSB. On the day of the assay, bacteria are pelleted (10000×g, 37° C., 3 min), are washed in saline, are pelleted as above, are resuspended in saline, then fluorescently labeled by incubation with rabbit anti-mouse IgG Alexa Fluor 488 (final concentration 8 μg/ml, RT, 20 min). Protein A, a S. aureus cell surface protein, avidly binds IgG thereby labeling the bacteria. Labeled bacteria are washed twice as above and are resuspended to 3×10^8 CFU/ml in saline. Host cells are incubated with the bacteria for 1 hour (1.2×10^8 CFU/ml for same-day recovery, 5×10^6 for recovery after 48 hours, 1.4×10^7 CFU/ml; 5% CO2, 37° C.). Following infection, extracellular bacteria are removed by extensive washes with PBS and incubation of the host cells with antimicrobials that have limited mammalian membrane permeability (lysostaphin, 20 μg/ml and gentamicin, 50 μg/ml; 45 min for same-day recovery studies, 48 hours for 2-day recovery studies; 5% CO2, 37° C.). To detect the level of infection using flow cytometry, cells that have been infected with fluorescently-labeled bacteria are washed extensively with PBS, lifted from 96-well plate by incubation with trypsin, washed extensively in FACS buffer (2% BSA/0.1% sodium azide/PBS), fixed (FACS buffer containing 0.74% formaldehyde), and are counted using an Accuri flow cytometer (BD, Franklin Lakes, N.J.). They are also lifted from culture dishes using cell scrapers, pelleted, fixed (1% BSA/0.74% formaldehyde/PBS), and are counted using an Accuri flow cytometer. For enumeration of the infecting bacteria, intracellular bacteria are released from host cells using 1% saponin/PBS (20 min, 5% CO2, 37° C.) and serial dilutions are plated on TSA (16 hours, 37° C.). […]
For orientation: Flow cytometry measures light scatter and fluorescence of single cells or particles in a stream.

A further data set concerns actin stress fibers. As to the kind of experiment: Actin stress fiber depolymerization in HUVEC during S. aureus infection. Conditions: 18-20 h pretreatment, S. aureus 1 h. In kind it is cell-based, human. On the procedure:
FIG. 8A is an image depicting ML 141 limiting actin stress fiber depolymerization during infection. Human umbilical vein endothelial cells (HUVEC) were incubated with ML 141 or with the vehicle control polyethylene glycol (PEG) 18-20 h prior to infection with Staphylococcus aureus (1 h). Actin was detected using Alexa Fluor 488 phalloidin. Arrows indicate intact actin stress fibers. Arrowhead indicates cell lacking actin stress fibers. 100 cells/treatment were evaluated from randomly selected fields. Data are presented as the % of cells in which actin stress fibers were not detected. Scale bar is 50 μm.
FIG. 8B is an image depicting RSM 06 limiting actin stress fiber depolymerization during infection. Human umbilical vein endothelial cells (HUVEC) were incubated with RSM 06 or with the vehicle control polyethylene glycol (PEG) 18-20 h prior to infection with Staphylococcus aureus (1 h). Actin was detected using Alexa Fluor 488 phalloidin. 200 cells/treatment were evaluated from randomly selected fields. Data are presented as the % of cells in which actin stress fibers were not detected. Scale bar is 50 μm.
FIG. 8C is an image depicting RSM 16 limiting actin stress fiber depolymerization during infection. Human umbilical vein endothelial cells (HUVEC) were incubated with RSM 16 or with the vehicle control polyethylene glycol (PEG) 18-20 h prior to infection with Staphylococcus aureus (1 h). Actin was detected using Alexa Fluor 488 phalloidin. 200 cells/treatment were evaluated from randomly selected fields. Data are presented as the % of cells in which actin stress fibers were not detected. Scale bar is 50 μm.
HUVEC are plated at 1×10^5 cells/ml into 35 mm glass-bottom dishes (MatTek, Ashland, Mass.) are coated with Attachment Factor, are pretreated, and are infected (1.2×10^8 CFU) as described above. […] Alexa 488 is excited by the 488 nanommeter Ar laser line and is detected using a 505-530 nanometer bandpass filter. […] Maximum pixel projections from the Z-stacks are generated and are analyzed for actin morphology.

The target in another data set is CDC42 (Homo sapiens, UniProt P60953). The experiment in a line: BODIPY-FL-GTP binding to CDC42.
The subject of data set [2] is Staphylococcus aureus. As to the kind of experiment: Assessment of bactericidal activity (HUVEC media). The data set is classed as cell-based. Conditions: 1.2 × 10^8 CFU S. aureus, 1 h in HUVEC media; 10 μM. Here is the method:
FIG. 6B illustrates that neither cytotoxicity nor bactericidal activity is detected. Cultures of Staphylococcus aureus that had been incubated with the vehicle control DMSO or with ML 141 (1 hour, 37° C., 225 rpm) were serially diluted, plated onto blood agar, and incubated (18 hours, 37° C.). Colonies were enumerated and colony forming units (CFU)/ml determined. CFU/ml were not different amongst the groups (p>0.05 by t-test; n=2/treatment). […]

The subject of data set [3] is Human umbilical vein endothelial cells. The experiment in a line: Cytotoxicity by propidium iodide exclusion, HUVEC. As to conditions: HUVEC pretreated 18-20 h. The data set is classed as cell-based.
The subject of data set [4] is Staphylococcus aureus. The experiment in a line: Assessment of bactericidal activity (DMEM, 10% fetal bovine serum). As to conditions: 3.2 × 10^6 CFU S. aureus, 1 h in DMEM with 10% fetal bovine serum; head prints 20 mM. In kind it is cell-based.
Another data set concerns RAW 264.7 cells. The experiment in a line: Cytotoxicity by propidium iodide, RAW 264.7 cells. In kind it is cell-based. Conditions: RAW 264.7 pretreated 18-20 h.
Data set [5] has as its system Staphylococcus aureus. The experiment in a line: Intracellular bacteria per host cell (HUVEC), fluorescence microscopy. In kind it is cell-based. As to conditions: 10 μmol/L, 18-20 h, 100 cells counted.

A word on the IC50: it is the midpoint of a concentration-inhibition curve. Read a high IC50 as weaker potency in that assay.

Chain of CDC42 (P60953 whole entry): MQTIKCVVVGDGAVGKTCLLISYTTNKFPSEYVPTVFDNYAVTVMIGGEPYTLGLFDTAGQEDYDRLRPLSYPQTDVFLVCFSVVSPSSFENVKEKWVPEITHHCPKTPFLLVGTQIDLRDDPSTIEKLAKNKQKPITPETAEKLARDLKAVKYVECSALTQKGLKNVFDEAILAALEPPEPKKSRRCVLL

With `COc1ccc(C2=NN(c3ccc(S(N)(=O)=O)cc3)C(c3ccc4c(c3)OCO4)C2)cc1` (stereo not drawn) [RSM 06], in the data set on Staphylococcus aureus [1], the “inhibition of invasion compared with ML 141 (Table 1)” value is on record as “inhibited invasion more than ML 141” and the activity at 10 µM amounted to 23 ± 1%. The “depolymerization of actin stress fibers during infection” value with actin stress fibers is “limited actin depolymerization”. The same compound yielded a half-inhibitory concentration (IC50) on CDC42 of 10.1 µM. In the data set on Staphylococcus aureus [2], the “CFU (×10^8 ± SEM), Compound (10 μM)” value is listed as 4.9 ± 1.6 ×10^8 CFU. Moreover, the “Mean fluorescence intensity (×10^4 ± SEM), Compound (10 μM)” value in data set [3] is recorded as 2.8 ± 0.1 ×10^4.
Turning to `COc1ccc(C2=NN(c3ccc(S(N)(=O)=O)cc3)C(c3ccc(OC)c(OC)c3)C2)cc1` (stereo not drawn) [RSM 16], in the data set on Staphylococcus aureus [1], the “inhibition of invasion compared with ML 141 (Table 1)” value is recorded as “inhibited invasion more than ML 141” and the activity at 10 µM was 63 ± 4%. Besides, the “depolymerization of actin stress fibers during infection” value with actin stress fibers is given as “limited actin depolymerization”. This compound showed a concentration for half-maximal inhibition (IC50) on CDC42 of 3.7 µM. The “CFU (×10^8 ± SEM), Compound (10 μM)” value in the data set on Staphylococcus aureus [2] is 8.9 ± 1.9 ×10^8 CFU. Also, in data set [3], the “Mean fluorescence intensity (×10^4 ± SEM), Compound (10 μM)” value is listed as 1.4 ± 0.2 ×10^4.
Take `COc1ccc(CCC(=NNc2ccc(S(N)(=O)=O)cc2)c2ccccc2)cc1` [RSM 27]: the “CFU/mL (×10^9 ± SEM), Compound” value in the data set on Staphylococcus aureus [4] is 2.4 ± 0.6 ×10^9 CFU/mL. Also, in the data set with RAW 264.7 cells, the “Mean fluorescence intensity (×10^3 ± SEM), Compound (10 μM)” value was 1.0 ± 0.1 ×10^3. The “Intracellular bacteria/cell (±SEM), Structural analog” value with Staphylococcus aureus [5] is listed as 4.4 ± 0.5 bacteria/cell.
In the same order, the values of `CN(C)c1ccc(C2CC(c3ccccc3)=NN2c2ccc(S(N)(=O)=O)cc2)cc1` (stereo not drawn) [RSM 28] are 1.8 ± 0.05 ×10^9 CFU/mL, 11 ± 2.0 ×10^3 and 1.4 ± 0.3 bacteria/cell.
For the compound `CC(=O)Nc1ccc(C2CC(c3ccccc3)=NN2c2ccc(S(N)(=O)=O)cc2)cc1` (stereo not drawn) [RSM 29], in the data set on Staphylococcus aureus [4], the “CFU/mL (×10^9 ± SEM), Compound” value is listed as 1.4 ± 0.1 ×10^9 CFU/mL. For the same compound, the “Mean fluorescence intensity (×10^3 ± SEM), Compound (10 μM)” value with RAW 264.7 cells is 4.2 ± 0.3 ×10^3. The “Intracellular bacteria/cell (±SEM), Structural analog” value in the data set on Staphylococcus aureus [5] was determined as 2.4 ± 0.4 bacteria/cell.
In the same order, the values of `COc1ccc(C2CC(c3cccc(NC(C)=O)c3)=NN2c2ccc(S(N)(=O)=O)cc2)cc1` (stereo not drawn) [RSM 30] are 1.5 ± 0.02 ×10^9 CFU/mL, 2.4 ± 0.4 ×10^3 and 1.7 ± 0.3 bacteria/cell.
As to `COc1ccc(C2CC(c3ccc(NC(C)=O)cc3)=NN2c2ccc(S(N)(=O)=O)cc2)cc1` (stereo not drawn) [RSM 31], in the data set on Staphylococcus aureus [4], the “CFU/mL (×10^9 ± SEM), Compound” value is given as 0.9 ± 0.09 ×10^9 CFU/mL. Moreover, the “Mean fluorescence intensity (×10^3 ± SEM), Compound (10 μM)” value with RAW 264.7 cells is 2.4 ± 0.3 ×10^3. Besides, the “Intracellular bacteria/cell (±SEM), Structural analog” value with Staphylococcus aureus [5] amounted to 1.4 ± 0.4 bacteria/cell.
Turning to `CCC(=O)Nc1ccc(C2=NN(c3ccc(S(N)(=O)=O)cc3)C(c3ccc(OC)cc3)C2)cc1` (stereo not drawn) [RSM 32], in the data set on Staphylococcus aureus [4], the “CFU/mL (×10^9 ± SEM), Compound” value is on record as 2.4 ± 0.3 ×10^9 CFU/mL. For the same compound, in the data set on RAW 264.7 cells, the “Mean fluorescence intensity (×10^3 ± SEM), Compound (10 μM)” value is listed as 2.8 ± 1.1 ×10^3. The “Intracellular bacteria/cell (±SEM), Structural analog” value with Staphylococcus aureus [5] was 5.5 ± 0.4 bacteria/cell.
As to `CCC(=O)Nc1cccc(C2=NN(c3ccc(S(N)(=O)=O)cc3)C(c3ccc(OC)cc3)C2)c1` (stereo not drawn) [RSM 33], in the data set on Staphylococcus aureus [4], the “CFU/mL (×10^9 ± SEM), Compound” value is given as 1.3 ± 0.04 ×10^9 CFU/mL. Besides, in the data set on RAW 264.7 cells, the “Mean fluorescence intensity (×10^3 ± SEM), Compound (10 μM)” value is 2.9 ± 1.1 ×10^3. Further, the “Intracellular bacteria/cell (±SEM), Structural analog” value with Staphylococcus aureus [5] stood at 5.4 ± 0.4 bacteria/cell.
